Laboratory results as given in patent publication US8569336B2, “Compounds for the treatment of inflammatory disorders” (priority 2008, dated 2013).

What follows are compounds tested against T1, purified catalytic domain of recombinant human TACE (rhTACEc) (Homo sapiens, UniProt P78536, N452Q/S266A) (assay: TACE kinetic assay: cleavage of internally quenched peptide substrate TNF-FRET 2 (Ki)). Settings: Ki, TNF-FRET 2 substrate.
T1 construct: 6xHis (C); made in house; host or cells: baculovirus/Hi5 insect cells
T1 sequence (P78536 215-477 S266A/N452Q): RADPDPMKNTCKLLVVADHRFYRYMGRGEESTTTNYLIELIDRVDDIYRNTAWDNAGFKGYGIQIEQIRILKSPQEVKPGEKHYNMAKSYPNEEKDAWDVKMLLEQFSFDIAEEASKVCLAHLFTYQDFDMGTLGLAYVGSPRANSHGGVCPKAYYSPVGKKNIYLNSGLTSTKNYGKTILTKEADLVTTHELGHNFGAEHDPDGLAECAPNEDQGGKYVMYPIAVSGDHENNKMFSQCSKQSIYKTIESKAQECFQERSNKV
Assay type: biochemical
COc1ccc2c(c1)C(=O)N(CC1(c3cc4cc(-c5cc(=O)[nH]c(N)n5)ccc4o3)NC(=O)NC1=O)C2 (centres unmarked) [Compound 2224] was tested, and the Ki was 0.313 nM. For COc1ccc2c(c1)C(=O)N(C[C@@]1(c3cc4nc(-c5cccs5)ccc4o3)NC(=O)NC1=O)C2 [Compound 2162], the Ki was 0.125 nM. Compound CNC(=O)c1cnc2cc([C@]3(CN4Cc5ccc(OC)cc5C4=O)NC(=O)NC3=O)oc2c1 [Compound 1930] has a Ki of 0.87 nM. In the case of CNC(=O)c1cnc2cc([C@]3(CN4Cc5ccc(OC)cc5C4=O)NC(=O)NC3=O)oc2c1 [Compound 2461], the Ki is reported as 0.871 nM.

Same assay, conditions: TNF-FRET 2 substrate, read-out: Ki
COc1ccc2c(c1)C(=O)N(C[C@@]1(c3cc4cc(-c5cnccc5O)ccc4o3)NC(=O)NC1=O)C2 [Compound 2199] showed a Ki of 1.96 nM. Compound COc1ccc2c(c1)C(=O)N(C[C@@]1(c3cc4cc(C(C)=O)cnc4o3)NC(=O)NC1=O)C2 [Compound 2433] has a Ki of 0.731 nM. Work on COc1ccc2c(c1)C(=O)N(C[C@@]1(c3cc4cc(CNCCN)ccc4o3)NC(=O)NC1=O)C2 [Compound 2179] yielded a Ki of 0.713 nM. For COc1ccc2c(c1)C(=O)N(C[C@@]1(c3cc4cc(N5C(=O)CNC5=O)ccc4o3)NC(=O)NC1=O)C2 [Compound 2225], the Ki was 0.564 nM. COc1ccc2c(c1)C(=O)N(C[C@@]1(c3cc4cc(N5CC(=O)NS5(=O)=O)ccc4o3)NC(=O)NC1=O)C2 [Compound 2230] was tested, and the Ki was 0.781 nM. COc1ccc2c(c1)C(=O)N(C[C@@]1(c3cc4ccc(C(=O)N5CCN(C)CC5)cc4o3)NC(=O)NC1=O)C2 [Compound 2423] was tested, and the Ki was 1.01 nM. COc1ccc2c(c1)C(=O)N(C[C@@]1(c3cc4nc(-c5cnc(N(C)C)nc5)ccc4o3)NC(=O)NC1=O)C2 [Compound 2152] gave a Ki of 0.374 nM. With O=C1NC(=O)C(CN2Cc3ccccc3C2=O)(c2ccccc2)N1 (centres unmarked) [Compound 1297] the Ki was 16.4 nM. CCN1CCN(c2ccc3oc([C@@]4(CN5Cc6ccc(OCC7CC7)c(F)c6C5=O)NC(=O)NC4=O)cc3n2)CC1 [Compound 901] gave a Ki of 501 nM. For COc1ccc2c(c1)C(=O)N(C[C@@]1(c3ccc(-c4ccc(F)c(C#N)c4)cc3)NC(=O)NC1=O)C2 [Compound 1506], the Ki was 6.4 nM. Compound COc1ccc2c(c1F)C(=O)N(C[C@@]1(c3cc4cc(-c5c(C)nn(C)c5C)c(F)cc4o3)NC(=O)NC1=O)C2 [Compound 1182] has a Ki of 0.41 nM. In the case of COc1ccc2c(c1F)C(=O)N(C[C@]1(c3ccco3)NC(=O)NC1=O)C2 [Compound 312], the Ki is reported as 501 nM.

What follows are compounds tested on TNF-α production from human whole blood (assay: Inhibition of TNF-α production from human whole blood (hWBA), LPS stimulated, ELISA). Settings: Homo sapiens, 3.5 h, human whole blood diluted 1:1, LPS stimulated, 3.5 h, TNF-α by ELISA; read-out: hWBA (IC50).
Assay type: cell-based
For COc1ccc2c(c1)C(=O)N(CC1(c3cc4cc(-c5cc(=O)[nH]c(N)n5)ccc4o3)NC(=O)NC1=O)C2 (centres unmarked) [Compound 2224], the IC50 was 0.139 µM. COc1ccc2c(c1)C(=O)N(C[C@@]1(c3cc4cc(-c5cnccc5O)ccc4o3)NC(=O)NC1=O)C2 [Compound 2199] showed an IC50 of 7.36 µM. With COc1ccc2c(c1)C(=O)N(C[C@@]1(c3cc4cc(CNCCN)ccc4o3)NC(=O)NC1=O)C2 [Compound 2179] the IC50 was 0.376 µM. Compound COc1ccc2c(c1)C(=O)N(C[C@@]1(c3cc4cc(N5C(=O)CNC5=O)ccc4o3)NC(=O)NC1=O)C2 [Compound 2225] has an IC50 of 0.677 µM. In the case of COc1ccc2c(c1)C(=O)N(C[C@@]1(c3cc4nc(-c5cccs5)ccc4o3)NC(=O)NC1=O)C2 [Compound 2162], the IC50 is reported as 1.41 µM. Compound COc1ccc2c(c1)C(=O)N(C[C@@]1(c3cc4cc(N5CC(=O)NS5(=O)=O)ccc4o3)NC(=O)NC1=O)C2 [Compound 2230] has an IC50 of 4.41 µM. Work on COc1ccc2c(c1)C(=O)N(C[C@@]1(c3cc4nc(-c5cnc(N(C)C)nc5)ccc4o3)NC(=O)NC1=O)C2 [Compound 2152] yielded an IC50 of 0.675 µM. With COCCN1CCN(c2ccc3oc([C@]4(CN5Cc6ccc(OC)cc6C5=O)NC(=O)NC4=O)cc3n2)CC1 [Compound 2160] the IC50 was 0.333 µM.

Same assay, conditions: Homo sapiens, LPS-stimulated human whole blood, TNF-α by ELISA; read-out: hWBA (IC50)
In the case of COc1ccc2c(c1)C(=O)N(C[C@@]1(c3cc4ncc(C(=O)NCCN(C)C)cc4o3)NC(=O)NC1=O)C2 [Compound 1932], the IC50 is reported as 0.8 µM. In the case of COc1ccc2c(c1)C(=O)N(C[C@@]1(c3cc4cc(N5CCNC5=O)ncc4o3)NC(=O)NC1=O)C2 [Compound 307], the IC50 is reported as 0.529 µM. In the case of COC(=O)CCNc1nc2cc([C@]3(CN4Cc5ccc(OC)c(F)c5C4=O)NC(=O)NC3=O)oc2cc1F [Compound 1921], the IC50 is reported as 0.239 µM. COc1ccc2c(c1)C(=O)N(C[C@@]1(c3cc4nc(-c5ccc(S(N)(=O)=O)cc5)ccc4o3)NC(=O)NC1=O)C2 [Compound 1528] was tested, and the IC50 was 2.69 µM. With CCNC(=O)NCc1ccc2oc([C@]3(CN4Cc5ccc(OC)cc5C4=O)NC(=O)NC3=O)cc2c1 [Compound 325] the IC50 was 1.99 µM. Work on CCN1CCN(c2cc3cc([C@]4(CN5Cc6ccc(OC)cc6C5=O)NC(=O)NC4=O)oc3cn2)CC1 [Compound 308] yielded an IC50 of 0.343 µM. For CCOC(=O)[C@H]1CCC(=O)N1c1ccc2oc([C@]3(CN4Cc5ccc(OC)cc5C4=O)NC(=O)NC3=O)cc2n1 [Compound 1502], the IC50 was 1.38 µM. COCCNC(=O)c1cnc2cc([C@]3(CN4Cc5ccc(OC)cc5C4=O)NC(=O)NC3=O)oc2c1 [Compound 1933] was tested, and the IC50 was 0.657 µM. Work on COc1ccc2c(c1)C(=O)N(C[C@@]1(c3cc4cc(CNC(=O)N(C)C)ccc4o3)NC(=O)NC1=O)C2 [Compound 326] yielded an IC50 of 1.23 µM. With COC(=O)c1ccc2oc([C@]3(CN4Cc5ccc(OC)cc5C4=O)NC(=O)NC3=O)cc2n1 [Compound 1923] the IC50 was 0.339 µM. CCN1CCN(C(=NO)c2cnc3cc([C@]4(CN5Cc6ccc(OC)cc6C5=O)NC(=O)NC4=O)oc3c2)CC1 [Compound 1934] gave an IC50 of 0.342 µM. Work on COC(=O)NCCNc1nc2cc([C@]3(CN4Cc5ccc(OC)c(F)c5C4=O)NC(=O)NC3=O)oc2cc1F [Compound 1319] yielded an IC50 of 0.252 µM. With COc1ccc2c(c1)C(=O)N(C[C@@]1(c3cc4nc(NC(=O)c5cccnc5)ccc4o3)NC(=O)NC1=O)C2 [Compound 1947] the IC50 was 0.537 µM. COc1ccc2c(c1)C(=O)N(C[C@@]1(c3cc4ncc(C(=NO)N5CCN(c6cnccn6)CC5)cc4o3)NC(=O)NC1=O)C2 [Compound 1935] gave an IC50 of 0.546 µM. Work on CCOC(=O)NCc1ccc2oc([C@]3(CN4Cc5ccc(OC)cc5C4=O)NC(=O)NC3=O)cc2c1 [Compound 324] yielded an IC50 of 1.69 µM. Work on CCN1CCN(c2ccc(O)c(-c3ccc([C@]4(CN5Cc6ccc(OC)cc6C5=O)NC(=O)NC4=O)cc3)n2)CC1 [Compound 902] yielded an IC50 of 1.51 µM.

Same assay, conditions: Homo sapiens, human whole blood diluted 1:1, LPS stimulated, TNF-α by ELISA; read-out: hWBA (IC50)
With COc1ccc2c(c1)C(=O)N(C[C@@]1(c3cc4cc(C(C)=O)cnc4o3)NC(=O)NC1=O)C2 [Compound 2433] the IC50 was 0.712 µM. Work on COc1ccc2c(c1)C(=O)N(C[C@@]1(c3cc4ccc(C(=O)N5CCN(C)CC5)cc4o3)NC(=O)NC1=O)C2 [Compound 2423] yielded an IC50 of 1.09 µM. CCNC(=O)Nc1ccc2oc([C@]3(CN4Cc5ccc(OC)cc5C4=O)NC(=O)NC3=O)cc2n1 [Compound 2316] gave an IC50 of 0.672 µM. Compound COc1ccc2c(c1F)C(=O)N(C[C@@]1(c3cc4cc5c(cc4o3)C(=O)NCCC5)NC(=O)NC1=O)C2 [Compound 2492] has an IC50 of 0.322 µM. For COc1ccc2c(c1)C(=O)N(C[C@@]1(c3cc4nc(NS(C)(=O)=O)ccc4o3)NC(=O)NC1=O)C2 [Compound 2315], the IC50 was 0.189 µM. With COc1ccc2c(c1)C(=O)N(C[C@@]1(c3cc4c(o3)CCN(C(N)=O)C4)NC(=O)NC1=O)C2 [Compound 2440] the IC50 was 0.646 µM. Work on COc1ccc2c(c1)C(=O)N(C[C@@]1(c3cc4c(o3)CCN(S(C)(=O)=O)C4)NC(=O)NC1=O)C2 [Compound 2438] yielded an IC50 of 0.497 µM. Work on COc1ccc2c(c1)C(=O)N(C[C@@]1(c3cc4nc(NC(=O)c5cccnc5)ccc4o3)NC(=O)NC1=O)C2 [Compound 2313] yielded an IC50 of 0.537 µM. With COc1ccc2c(c1)C(=O)N(C[C@@]1(c3cc4c(o3)CCN(C(=O)Nc3cccnc3)C4)NC(=O)NC1=O)C2 [Compound 2443] the IC50 was at least 1000 µM. COc1ccc2c(c1)C(=O)N(C[C@@]1(c3cc4cnc(C#N)cc4o3)NC(=O)NC1=O)C2 [Compound 2444] was tested, and the IC50 was 0.759 µM. Compound CCNC(=O)N1CCc2oc([C@]3(CN4Cc5ccc(OC)cc5C4=O)NC(=O)NC3=O)cc2C1 [Compound 2442] has an IC50 of 0.309 µM. In the case of COc1ccc2c(c1)C(=O)N(C[C@@]1(c3cc4ncc(C(=O)NCCN(C)C)cc4o3)NC(=O)NC1=O)C2 [Compound 2465], the IC50 is reported as 0.8 µM. Work on COc1ccc2c(c1)C(=O)N(C[C@@]1(c3cc4nc(-c5ccc(S(N)(=O)=O)cc5)ccc4o3)NC(=O)NC1=O)C2 [Compound 2490] yielded an IC50 of 2.69 µM. For CCOC(=O)N1CCc2cc([C@]3(CN4Cc5ccc(OC)cc5C4=O)NC(=O)NC3=O)oc2C1 [Compound 2439], the IC50 was 0.704 µM. Compound COc1ccc2c(c1)C(=O)N(C[C@@]1(c3cc4c(o3)CCN(C(=O)N(C)C)C4)NC(=O)NC1=O)C2 [Compound 2441] has an IC50 of 0.501 µM.

Same assay, conditions: Homo sapiens, read-out: hWBA (IC50), LPS-stimulated human whole blood, TNF-α by ELISA
COc1ccc2c(c1F)C(=O)N(C[C@@]1(c3cc4nc(C)c(-c5ccc(N)nc5)cc4o3)NC(=O)NC1=O)C2 [Compound 1919] showed an IC50 of 0.308 µM.
